Experimental data from doi:10.1101/2024.10.09.24315180v1, “Schizandrin A suppressed pancreatic cancer proliferation and cancer associated fibroblast activation via inhibiting the COX-2/ALOX5 shunting” (medrxiv, 2024).

Columns and labels:
ALOX5 = biological target: T1, ALOX5 (Homo sapiens, UniProt P09917); test: SPR, Biacore T200, CM5 chip, multi-cycle; assay type: binding
T1 construct: immobilised on CM5 chip
T1 sequence (P09917 1-674): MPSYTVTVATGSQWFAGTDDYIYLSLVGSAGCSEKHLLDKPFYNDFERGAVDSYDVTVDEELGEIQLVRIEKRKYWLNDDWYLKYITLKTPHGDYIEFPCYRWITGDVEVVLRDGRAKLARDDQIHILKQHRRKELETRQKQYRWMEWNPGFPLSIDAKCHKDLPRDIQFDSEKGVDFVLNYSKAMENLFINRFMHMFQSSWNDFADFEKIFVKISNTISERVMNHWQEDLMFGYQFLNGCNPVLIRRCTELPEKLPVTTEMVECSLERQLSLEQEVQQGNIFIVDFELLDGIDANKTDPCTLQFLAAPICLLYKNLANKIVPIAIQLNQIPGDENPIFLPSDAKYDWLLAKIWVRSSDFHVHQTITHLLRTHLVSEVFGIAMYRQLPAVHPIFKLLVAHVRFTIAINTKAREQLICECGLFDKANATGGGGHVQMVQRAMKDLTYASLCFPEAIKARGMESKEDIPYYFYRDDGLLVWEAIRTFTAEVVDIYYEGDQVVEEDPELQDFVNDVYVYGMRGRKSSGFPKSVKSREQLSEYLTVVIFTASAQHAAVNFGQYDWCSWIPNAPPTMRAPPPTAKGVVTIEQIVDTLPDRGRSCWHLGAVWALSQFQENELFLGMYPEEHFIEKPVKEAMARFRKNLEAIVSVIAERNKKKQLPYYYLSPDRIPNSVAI

COX-2 = biological target: T2, COX-2 (Homo sapiens, UniProt P35354); test: SPR, Biacore T200, CM5 chip, multi-cycle; assay type: binding
T2 construct: gene PTGS2; immobilised on CM5 chip
T2 sequence (P35354 18-604): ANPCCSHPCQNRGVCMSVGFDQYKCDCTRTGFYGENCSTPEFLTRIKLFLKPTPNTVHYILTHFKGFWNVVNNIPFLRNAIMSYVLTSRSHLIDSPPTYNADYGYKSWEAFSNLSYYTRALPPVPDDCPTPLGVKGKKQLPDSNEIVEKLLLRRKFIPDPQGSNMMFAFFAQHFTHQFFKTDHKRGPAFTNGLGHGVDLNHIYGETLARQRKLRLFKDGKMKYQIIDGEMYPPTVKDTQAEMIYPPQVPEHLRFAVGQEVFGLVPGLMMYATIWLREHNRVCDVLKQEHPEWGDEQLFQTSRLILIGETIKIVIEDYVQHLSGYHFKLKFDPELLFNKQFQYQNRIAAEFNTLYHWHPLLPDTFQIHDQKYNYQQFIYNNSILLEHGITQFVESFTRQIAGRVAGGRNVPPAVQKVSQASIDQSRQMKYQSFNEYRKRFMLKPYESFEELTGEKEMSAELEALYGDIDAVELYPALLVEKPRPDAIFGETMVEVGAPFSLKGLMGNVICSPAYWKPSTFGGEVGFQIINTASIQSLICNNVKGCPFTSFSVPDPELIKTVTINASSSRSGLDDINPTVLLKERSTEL

Kd (ALOX5): 21.8 µM | Kd (COX-2): 14.8 µM
SMILES: COc1cc2c(c(OC)c1OC)-c1c(cc(OC)c(OC)c1OC)C[C@H](C)[C@H](C)C2 [Schizandrin A]
